The term IC50 denotes the concentration that gives 50% inhibition. Lower therefore signals inhibition by little substance.

Counter-ions that a name gives are not always drawn.

This assay concerns HCT 116 cells transfected with a luciferase reporter under the control of an HIF-responsive sequence. Nature of the assay: HIF-luciferase assay. Format: cell-based. Conditions: Homo sapiens; HCT 116 HIF-luciferase reporter cells, hypoxia chamber (1% O2), 24 h, luminescence. As for the experimental part:
HCT 116 cells were transfected in a stable manner with a plasmid which contained a luciferase reporter under the control of an HIF-responsive sequence. These cells were sown in microtitre plates [20,000 cells/cavity in RPMI 1640 medium with 10% foetal calf serum (FCS) and 100 μg/ml of hygromycin]. Incubation was carried out overnight under standard conditions (5% CO2, 21% O2, 37° C., moistened). The following morning the cells were incubated with various concentrations of the test substances (0-10 μmol/l) in a hypoxia chamber (1% O2). After 24 h, Bright Glo reagent (Promega, Wis., USA) was added in accordance with the manufacturer'/s instructions, and after 5 min the luminescence was measured. Cells which were incubated under normoxia served as background controls.
For orientation: In a reporter assay the amount or activity of a reporter protein is the signal.

`Cc1cc(-c2nc(-c3ccc(OC(F)(F)F)cc3)no2)nn1Cc1ccnc(N2CCC(N(C)C)CC2)c1` [Example 16, N,N-Dimethyl-1-{4-[(5-methyl-3-{3-[4-(trifluoromethoxy)phenyl]-1,2,4-oxadiazol-5-yl}-1H-pyrazol-1-yl)methyl]pyridin-2-yl}piperidin-4-amine] registered a half-inhibitory concentration (IC50) of 4 nM. The figure for `Cc1cc(-c2nc(-c3ccc(OC(F)(F)F)cc3)no2)nn1Cc1ccnc(N2CC(N(C)C)C2)c1` [Example 18] is 5 nM. `Cc1cc(-c2nc(-c3ccc(OC(F)(F)F)cc3)no2)nn1Cc1ccnc(N2CCN(C(C)C)CC2)c1` [Example 21] returned an IC50 of 10 nM. Next, `Cc1cc(-c2nc(-c3ccc(OC(F)(F)F)cc3)no2)nn1Cc1cccc(C(=O)N2CCN(C3CC3)CC2)c1` [Example 35]: 2 nM. Next, `Cc1cc(-c2nc(-c3ccc(S(=O)(=O)C(F)(F)F)cc3)no2)nn1Cc1cccc(C(=O)N2CCN(C)CC2)c1` [Example 41]: 6 nM; `Cc1cc(-c2nc(-c3ccc(C4(F)CCOCC4)cc3)no2)nn1Cc1cccc(C(=O)N2CCN(C)CC2)c1` [Example 45]: 10 nM; `Cc1cc(-c2nc(-c3ccc(OC(F)(F)F)cc3)no2)cn1Cc1cccc(C(=O)N2CCN(C)CC2)c1` [Example 52]: 3 nM. Next, `Cc1cc(-c2nc(-c3ccc(OC(F)(F)F)cc3)no2)nn1Cc1ccnc(N2CCN(C3CC3)CC2)c1` [Example 65, 1-Cyclopropyl-4-{4-[(5-methyl-3-{3-[4-(trifluoromethoxy)phenyl]-1,2,4-oxadiazol-5-yl}-1H-pyrazol-1-yl)methyl]pyridin-2-yl}piperazine]: 0.6 nM; `Cc1cc(-c2nc(-c3ccc(C4CCOCC4)cc3)no2)nn1Cc1ccnc(N2CCN(C3CC3)CC2)c1` [Example 71, 1-Cyclopropyl-4-{4-[(5-methyl-3-{3-[4-(tetrahydro-2H-pyran-4-yl)phenyl]-1,2,4-oxadiazol-5-yl}-1H-pyrazol-1-yl)methyl]pyridin-2-yl}piperazine]: 1 nM; `Cc1cc(-c2nc(-c3ccc(OC(F)(F)F)cc3)no2)nn1Cc1ccnc(N2CCN(CC(F)(F)F)CC2)c1` [Example 72, 1-{4-[(5-Methyl-3-{3-[4-(trifluoromethoxy)phenyl]-1,2,4-oxadiazol-5-yl}-1H-pyrazol-1-yl)-methyl]pyridin-2-yl}-4-(2,2,2-trifluoroethyl)piperazine]: 1 nM. Compound `Cc1cc(-c2nc(-c3ccc(C(C)(C)C)cc3)no2)nn1Cc1ccnc(N2CCN(C3CC3)CC2)c1` [Example 75, 1-[4-({3-[3-(4-tert-Butylphenyl)-1,2,4-oxadiazol-5-yl]-5-methyl-1H-pyrazol-1-yl}methyl)pyridin-2-yl]-4-cyclopropylpiperazine] yielded an IC50 of 1 nM.

On to `COCC1(c2ccc(-c3noc(-c4cc(C)n(Cc5ccnc(N6CCN(C7CC7)CC6)c5)n4)n3)cc2)CCC1` [Example 77, 1-Cyclopropyl-4-(4-{[3-(3-{4-[1-(methoxymethyl)cyclobutyl]phenyl}-1,2,4-oxadiazol-5-yl)-5-methyl-1H-pyrazol-1-yl]methyl}pyridin-2-yl)piperazine], for which 1 nM corresponded to half-maximal inhibition (IC50). Next, `Cc1cc(-c2nc(-c3ccc(C(C)(C)C)cc3)no2)nn1Cc1ccnc(N2CCN(CC(F)(F)F)CC2)c1` [Example 78, 1-[4-({3-[3-(4-tert-Butylphenyl)-1,2,4-oxadiazol-5-yl]-5-methyl-1H-pyrazol-1-yl}methyl)pyridin-2-yl]-4-(2,2,2-trifluoroethyl)piperazine]: 0.5 nM.

As to `Cc1cc(-c2nc(-c3ccc(OC(F)(F)F)cc3)no2)nn1Cc1ccnc(N2CCC(C#N)CC2)c1` [Example 85, 1-{4-[(5-Methyl-3-{3-[4-(trifluoromethoxy)phenyl]-1,2,4-oxadiazol-5-yl}-1H-pyrazol-1-yl)-methyl]pyridin-2-yl}piperidine-4-carbonitrile], it took 2 nM to reach half-maximal inhibition (IC50).

`Cc1cc(-c2nc(-c3ccc(OC(F)(F)F)cc3)no2)nn1Cc1ccnc(N2CCN(C)C(=O)C2)c1` [Example 86, 1-Methyl-4-{4-[(5-methyl-3-{3-[4-(trifluoromethoxy)phenyl]-1,2,4-oxadiazol-5-yl}-1H-pyrazol-1-yl)methyl]pyridin-2-yl}piperazin-2-one] yielded a half-inhibitory concentration (IC50) of 4 nM.

Take `Cc1cc(-c2nc(-c3ccc(C4(C(F)(F)F)CC4)cc3)no2)nn1Cc1ccnc(N2CCN(C3CC3)CC2)c1` [Example 91, 1-Cyclopropyl-4-(4-{[5-methyl-3-(3-{4-[1-(trifluoromethyl)cyclopropyl]phenyl}-1,2,4-oxadiazol-5-yl)-1H-pyrazol-1-yl]methyl}pyridin-2-yl)piperazine]: the midpoint of inhibition, the IC50, lay at 0.6 nM. Next, `Cc1cc(-c2nc(-c3ccc(OC(F)(F)F)c(F)c3)no2)nn1Cc1ccnc(N2CCN(C3CC3)CC2)c1` [Example 93, 1-Cyclopropyl-4-{4-[(3-{3-[3-fluoro-4-(trifluoromethoxy)phenyl]-1,2,4-oxadiazol-5-yl}-5-methyl-1H-pyrazol-1-yl)methyl]pyridin-2-yl}piperazine]: 0.8 nM. For `Cc1cc(-c2nc(-c3ccc(OC(F)(F)F)cc3)no2)nn1Cc1cccc(C(=O)N2CCCO2)c1` [Example 100, {3-[(5-Methyl-3-{3-[4-(trifluoromethoxy)phenyl]-1,2,4-oxadiazol-5-yl}-1H-pyrazol-1-yl)methyl]-phenyl}(1,2-oxazolidin-2-yl)methanone], the IC50 was 2.5 nM.

In turn, `Cc1cc(-c2nc(-c3cccc(OC(F)(F)F)c3)no2)nn1Cc1cccc(C(=O)N2CCN(C)CC2)c1` [Example 119, (4-Methylpiperazin-1-yl) {3-[(5-methyl-3-{3-[3-(trifluoromethoxy)phenyl]-1,2,4-oxadiazol-5-yl}-1H-pyrazol-1-yl)methyl]phenyl}methanone hydrochloride] gave a 50% inhibitory concentration (IC50) of 20 nM. Compound `Cc1cc(-c2nc(-c3ccc(C4(C(F)(F)F)CC4)cc3)no2)nn1Cc1cccc(C(=O)N2CCN(C)CC2)c1` [Example 137, (4-Methylpiperazin-1-yl)(3-{[5-methyl-3-(3-{4-[1-(trifluoromethyl)cyclopropyl]phenyl}-1,2,4-oxadiazol-5-yl)-1H-pyrazol-1-yl]methyl}phenyl)methanone] yielded a concentration for half-maximal inhibition (IC50) of 3 nM. With `Cc1cc(-c2nc(-c3ccc(C(C)(C)C(F)(F)F)cc3)no2)nn1Cc1cccc(S(=O)(=O)N2CCC(O)CC2)c1` [Example 140, 1-({3-[(5-Methyl-3-{3-[4-(1,1,1-trifluoro-2-methylpropan-2-yl)phenyl]-1,2,4-oxadiazol-5-yl}-1H-pyrazol-1-yl)methyl]phenyl}sulfonyl)piperidin-4-ol], the half-maximal inhibitory concentration (IC50) is 4 nM. Next, `COC1CCN(c2cc(Cn3nc(-c4nc(-c5ccc(OC(F)(F)F)cc5)no4)cc3C)ccn2)CC1` [Example 150, 2-(4-Methoxypiperidin-1-yl)-4-[(5-methyl-3-{3-[4-(trifluoromethoxy)phenyl]-1,2,4-oxadiazol-5-yl}-1H-pyrazol-1-yl)methyl]pyridine]: 3 nM.

The values above are taken from US20130196964A1, “HETEROCYCLICALLY SUBSTITUTED ARYL COMPOUNDS AS HIF INHIBITORS” (BAYER SCHERING PHARMA AKTIENGESELLSCHAFT, priority 2008, published 2013).
